# From patent US20230295234A1, “ANTIMICROBIAL PEPTIDOMIMETICS” (SPEXIS AG, priority 2020, published 2023)
# Bridge positions count the residues as written; N and C are the ends. Square brackets hold non-standard residues; d marks the D form. Peptide text beside a SMILES is read from it. Pro(4R-NH2) = N[C@H]1CN[C@H](C(=O)O)C1; Hyp = O=C(O)[C@@H]1C[C@@H](O)CN1; Gly(N(CH2)3NH2) = NCCCNCC(=O)O; Pen = CC(C)(S)[C@H](N)C(=O)O; dDab = NCC[C@@H](N)C(=O)O; Dab = NCC[C@H](N)C(=O)O; Nlys = NCCCCNCC(=O)O
# What was measured:
# [1] = system: Escherichia coli ATCC 25922; conditions: ATCC 25922
# Procedure: (§1) Lyophilized peptides were weighed on a Microbalance (Mettler MT5) and dissolved in sterile water to a final concentration of 1 mg/mL. Stock solutions were kept at +4° C., light protected.
# (§2) Colonies of the microorganisms were diluted in saline (0.85%, NaCl) and adjusted using a McFarland reader (bioMérieux SA, Marcy-l'Etoile, France) to 0.5 McFarland standard. Subsequently, the bacterial suspension was diluted in Mueller-Hinton II (MHII, cation adjusted) broth to give approximately 5×10^5 colony forming units (CFU/mL).
# (§3) 10^6 colony forming units (CFU)/mL. Aliquots (90 μl) of inoculate were added to 10 μl of water+P-80 (Polysorbate 80, 0.002% final concentration) containing the peptide in serial two-fold dilutions at 10 fold final concentration. The following microorganisms were used to determine antibiotic selectivity of the peptides: Escherichia coli ATCC 25922, Escherichia coli MCR-1 Af 45 and Klebsiella pneumoniae SSI3010.
# [2] = system: Klebsiella pneumoniae SSI3010; conditions: SSI3010
# Procedure: as §1, §2, §3
# [3] = system: human red blood cells (hRBC); test: Hemolysis of human red blood cells; type: cell-based; conditions: red cells of human, 1 h
# Procedure: Lyophilized peptides were weighed on a Microbalance (Mettler MT5) and dissolved in sterile water to a final concentration of 1 mg/mL. Stock solutions were kept at +4° C., light protected. The peptides were tested for their hemolytic activity against human red blood cells (hRBC). Fresh hRBC were washed three times with phosphate buffered saline (PBS) and centrifuged for 5 min at 3000×g. Compounds (200 μg/mL) were incubated with 20% hRBC (v/v) for 1 h at 37° C. and shaking at 300 rpm. […] The samples were centrifuged, the supernatants were 8-fold diluted in PBS buffer and the optical densities (OD) were measured at 540 nm. […] Percent hemolysis was calculated as follows: (OD540peptide/OD540H2O)×100%.
SMILES,Escherichia coli ATCC 25922 MIC [1],Klebsiella pneumoniae SSI3010 MIC [2],Hemolysis at 0.2 g/L [3]
"CC[C@H](C)[C@H](NC(=O)[C@@H]1C[C@@H](O)CN1C(=O)[C@@H](NC(=O)[C@@H]1C[C@@H](N)CN1C(=O)CNCCCN)C(C)C)C(=O)N[C@H](C(=O)N[C@@H](Cc1ccc(O)cc1)C(=O)N[C@@H]1C(=O)N[C@@H](CC(N)=O)C(=O)N[C@@H](CCCNC(=N)N)C(=O)N[C@@H](CCN)C(=O)N[C@@H]([C@@H](C)O)C(=O)N[C@H](CCN)C(=O)N[C@@H](CCCCN)C(=O)N[C@H](C(=O)N[C@@H](CCN)C(=O)N[C@@H](CCCNC(=N)N)C(=O)N[C@@H](Cc2ccc(O)cc2)C(=O)O)CSSC1(C)C)[C@@H](C)O [Example 51, Norn-Pro((4R)NH2)-Val-Hyp-Ile-Thr-Tyr-Pen-Asn-Arg-Dab-Thr-^DDab-Lys-Cys-Dab-Arg-Tyr] (H-[Gly(N(CH2)3NH2)][Pro(4R-NH2)]V[Hyp]ITY[Pen]NR[Dab]T[dDab]KC[Dab]RY-OH; disulfide 8-15)",0.0625 µg/mL,0.25 µg/mL,0%
"CC[C@H](C)[C@H](NC(=O)[C@@H]1C[C@@H](O)CN1C(=O)[C@@H](NC(=O)[C@@H]1C[C@@H](N)CN1C(=O)CNCCCCN)C(C)C)C(=O)N[C@H](C(=O)N[C@@H](Cc1ccc(O)cc1)C(=O)N[C@@H]1C(=O)N[C@@H](CC(N)=O)C(=O)N[C@@H](CCCNC(=N)N)C(=O)N[C@@H](CCN)C(=O)N[C@@H]([C@@H](C)O)C(=O)N[C@H](CCN)C(=O)N[C@@H](CCCCN)C(=O)N[C@H](C(=O)N[C@@H](CCN)C(=O)N[C@@H](CCCNC(=N)N)C(=O)N[C@@H](Cc2ccc(O)cc2)C(=O)O)CSSC1(C)C)[C@@H](C)O [Example 52, Nlys-Pro((4R)NH2)-Val-Hyp-Ile-Thr-Tyr-Pen-Asn-Arg-Dab-Thr-^DDab-Lys-Cys-Dab-Arg-Tyr] (H-[Nlys][Pro(4R-NH2)]V[Hyp]ITY[Pen]NR[Dab]T[dDab]KC[Dab]RY-OH; disulfide 8-15)",0.0625 µg/mL,0.125 µg/mL,0%
"CCCC[C@H](NC(=O)[C@H](CCCNC(=N)N)NC(=O)[C@H](CCN)NC(=O)[C@@H]1CSSC[C@H](NC(=O)[C@H](Cc2ccc(O)cc2)NC(=O)[C@@H](NC(=O)[C@@H](NC(=O)[C@@H]2C[C@@H](O)CN2C(=O)[C@@H](NC(=O)[C@@H]2C[C@@H](O)CN2C(=O)[C@H](CCCCN)NC(=O)[C@@H](N)CCCCN)C(C)C)[C@@H](C)CC)[C@@H](C)CC)C(=O)N[C@@H](CC(N)=O)C(=O)N[C@@H](CCCNC(=N)N)C(=O)N[C@@H](CCN)C(=O)N[C@@H]([C@@H](C)O)C(=O)N[C@H](CCN)C(=O)N[C@@H](CCCCN)C(=O)N1)C(=O)O [Example 78, Lys-Lys-Hyp-Val-Hyp-Ile-Ile-Tyr-Cys-Asn-Arg-Dab-Thr-^DDab-Lys-Cys-Dab-Arg-Nle] (HELM PEPTIDE1{K.K.[Hyp].V.[Hyp].I.I.Y.C.N.R.[Dab].T.[NCC[C@@H](N[*:1])C(=O)[*:2]].K.C.[Dab].R.[Nle]}$PEPTIDE1,PEPTIDE1,9:R3-16:R3$$$V2.0)",0.125 µg/mL,0.125 µg/mL,0%
